Experimental data from US20220119868A1, “PROFILING RNA-SMALL MOLECULE BINDING SITES WITH OLIGONUCLEOTIDES” (priority 2018, published 2022).
“And” between values parts separate entries of the source, which are not always exact repeats. Identical values can stand only once.

How the values were obtained:
[1] = test system: RNA library C (3×2 nucleotide asymmetric internal loops); experiment: 2DCS selection with RNA-seq and HiT-StARTS analysis (Zobs, Fitness Score); format: binding; set-up: key to Fitness Score: Zobs normalized so most significant interaction = 100
Description: Identification of RNA-binding Small Molecules by 2DCS. […] We have previously validated the secondary structures formed by members of RNA libraries by enzymatic mapping^8, 12, 34. These discrete RNA motifs were selected because they are present in cellular RNAs. Due to the library-versus-library nature of these studies, they represent the largest screens completed to date, probing >52,000,000 interactions. Of the 1,987 compounds probed, 239 bound RNA (12.0%).
A final screen was then completed in which the 91 array-immobilized compounds were incubated with all five RNA motif libraries separately in the presence of oligonucleotide competitors F-J, d(AT)11 and d(GC)11. Oligonucleotides F-J mimic regions common to all library members, restricting binding to the randomized regions. (Note: oligonucleotide J was not used for hairpin selections.) After rigorous washing to remove unbound RNAs, bound RNAs were harvested and identified by RNA-seq. By completing selections under conditions of high oligonucleotides stringency (by use of excess competitor oligonucleotides), these studies identified small molecules that bound RNA motifs avidly. A challenge in the small molecule RNA-targeting area has been the development and identification of selective interactions between small molecules and RNAs. In myriad studies, 2DCS has defined selective RNA motif-small molecule interactions with varied affinities^11, 12, 35, 36.
Identification of Privileged RNA Space by RNA-Seq. Using RNA-seq, a large sequencing dataset was obtained for each pool of RNAs that were specifically bound to each small molecule. RNA libraries A, B, C, D, and E had at least 12.1-fold (average: 133.1±111.8), 6.7-fold (average: 80.8±78.7), 9.9-fold (average: 103.5±110.6), 7.2-fold (average: 75.7±65.6), and 6.0-fold (average: 36.3±31.6) coverage for each small molecule selection, respectively, as compared to the number of unique sequences within the corresponding RNA library. It was previously shown that at least 6-fold coverage is required to generate binding landscape maps^12. RNA-seq data were then analyzed by High Throughput Structure-Activity Relationships Through Sequencing (HiT-StARTS)^12 to identify the privileged RNA motifs that bind each small molecule. Briefly, the frequency of occurrence of a selected RNA was compared to the frequency of occurrence of the same RNA from RNA-seq analysis of the starting RNA library to account for biases arising during transcription and RT-PCR. This pooled population comparison affords the parameter Zobs, a metric of statistical confidence. A large, positive Zobs indicates a strong preference for binding the motif while a negative Zobs indicates a strong preference against binding the motif. A Fitness Score is assigned by normalizing the Zobs values to the most statistically significant small molecule-RNA interaction to 100. […] Structure-Activity Relationships (SAR). Next, the most privileged RNA motif binders and the most discriminated against RNA motifs (non-binders) for each compound selection was analyzed by generating LOGOS from the highest and lowest 0.5% of Zobs scores^37. By comparing the LOGOS for related compounds, or DiffLogos, SAR can be defined. Indeed, various hit compounds differ by a single functional group, including compounds A and B (FIG. 5). […] In contrast, the RNA motifs most hindered from binding compounds 1 and 2 (discriminated against) are quite different (FIG. 5B).
Oligonucleotides. All DNA oligonucleotides were purchased from Integrated DNA Technologies, Inc. (IDT) and used without further purification. RNA oligonucleotide competitors were purchased from Dharmacon and de-protected according to the manufacturer's standard procedure. All oligonucleotide solutions were prepared with NANOpure water. The RNA motif libraries were synthesized by in vitro transcription from the corresponding DNA template that was custom-mixed at the randomized positions to ensure equivalent representation of all four nucleotides. Compounds. […]

[2] = target: CHK1 (Homo sapiens, UniProt O14757); experiment: In vitro inhibition of a panel of kinases; format: biochemical; settings: 20 μM
Chain of CHK1 (O14757 whole entry): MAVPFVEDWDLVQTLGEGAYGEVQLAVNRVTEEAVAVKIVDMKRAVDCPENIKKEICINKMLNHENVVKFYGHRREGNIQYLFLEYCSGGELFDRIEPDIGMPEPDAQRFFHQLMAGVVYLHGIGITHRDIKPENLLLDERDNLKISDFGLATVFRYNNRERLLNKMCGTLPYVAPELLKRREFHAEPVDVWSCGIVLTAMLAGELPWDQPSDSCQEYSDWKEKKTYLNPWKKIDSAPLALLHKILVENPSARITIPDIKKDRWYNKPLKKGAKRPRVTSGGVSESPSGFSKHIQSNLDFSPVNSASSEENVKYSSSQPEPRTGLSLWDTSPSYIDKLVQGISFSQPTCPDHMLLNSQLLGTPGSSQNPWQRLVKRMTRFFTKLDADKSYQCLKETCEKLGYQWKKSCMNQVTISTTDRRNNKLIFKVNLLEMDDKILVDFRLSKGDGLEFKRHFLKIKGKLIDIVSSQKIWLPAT
Description: Effect of compounds on HCV replication. […] Cytotoxicity assays. […] Oligonucleotide profiling of target engagement in vitro. […] Primers can be found in Table 4. […] Inhibition of kinases. […] . Figure S7C).

| SMILES | Fitness Score ([1]; RNA motif 5′GAU3′/3′C_A5′) | Zobs ([1]; RNA motif 5′GAU3′/3′C_A5′) | Fitness Score ([1]; RNA motif 5′GCU3′/3′C_A5′) | Zobs ([1]; RNA motif 5′GCU3′/3′C_A5′) | Fitness Score ([1]; RNA motif 5′UCUAU3′/3′ACCA5′) | Zobs ([1]; RNA motif 5′UCUAU3′/3′ACCA5′) | Zobs ([1]; RNA motif 5′UUA3′/3′A_U5′) | inhibition of CHK1 in vitro [2] | Fitness Score ([1]; RNA motif 5′AAC3′/3′U_G5′) | Zobs ([1]; RNA motif 5′AAC3′/3′U_G5′) | Fitness Score ([1]; RNA motif 5′GAG3′/3′C_C5′) | Zobs ([1]; RNA motif 5′GAG3′/3′C_C5′) | Zobs ([1]; RNA motif 5′UCCAU3′/3′AUCA (non-binder)) | Zobs ([1]; RNA motif 5′UCCUU3′/3′AUUA5′ (non-binder)) | Fitness Score ([1]; RNA motif 5′UGU3′/3′G_A5′) | Zobs ([1]; RNA motif 5′UGU3′/3′G_A5′) | Fitness Score ([1]; RNA motif 5′UUA3′/3′A_U5′, Zobs normalized to most significant interaction = 100) |
| --- | --- | --- | --- | --- | --- | --- | --- | --- | --- | --- | --- | --- | --- | --- | --- | --- | --- |
| O=C(Nc1ccc(C2=NCCN2)cc1)c1cc(C(=O)Nc2ccc(C3=NCCN3)cc2)cc(C(=O)Nc2ccc(C3=NCCN3)cc2)c1 [Compound 8] | 87 | 11.8 | 79 | 10.8 | 45 | 6.1 | 13.6 and 9.5 | inhibited | – | – | – | – | – | – | – | – | – |
| O=C(Nc1cccc(NC(=O)Nc2cc(C(=O)Nc3ccc(C4=NCCN4)cc3)ccc2C(=O)Nc2ccc(C3=NCCN3)cc2)c1)Nc1cc(C(=O)Nc2ccc(C3=NCCN3)cc2)ccc1C(=O)Nc1ccc(C2=NCCN2)cc1 [Compound 7] | – | – | – | – | – | – | 25.2 | – | 33 | 8.2 | 73 | 18.3 | −2.8 | 1.1 | 47 | 11.8 | 100 |
